Experimental data published in US20180185301A1, “PHARMACEUTICAL COMPOSITIONS COMPRISING POLYALKYLENE GLYCOL DERIVATIVES” (Symrise AG, priority 2015, published 2018).

Target: T1, PAR-2 (Homo sapiens, UniProt P55085)
T1 construct: human embryonic kidney 293 cells (HEK293) endogenously expressing PAR-2; endogenous in cells; host or cells: HEK293
T1 sequence (P55085 26-397): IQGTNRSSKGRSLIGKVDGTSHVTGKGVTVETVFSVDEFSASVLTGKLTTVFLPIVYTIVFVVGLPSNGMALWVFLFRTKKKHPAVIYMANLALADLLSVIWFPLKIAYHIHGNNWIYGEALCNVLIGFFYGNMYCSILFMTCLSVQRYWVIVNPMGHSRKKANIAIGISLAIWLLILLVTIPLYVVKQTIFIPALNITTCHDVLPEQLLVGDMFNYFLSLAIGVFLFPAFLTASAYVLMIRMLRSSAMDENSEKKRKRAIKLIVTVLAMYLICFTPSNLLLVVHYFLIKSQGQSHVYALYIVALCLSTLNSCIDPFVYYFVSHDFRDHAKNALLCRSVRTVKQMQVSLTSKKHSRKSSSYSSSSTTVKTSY
Assay: In vitro PAR-2 assay (trypsin-evoked calcium signal, Fluo-4)
Type: cell-based
Settings: for IC50: HEK293 cells endogenously expressing PAR-2, in the presence of 4 nM trypsin, calcium imaging
Description: Assay Principle: A cellular in vitro assay was developed with human embryonic kidney 293 cells (HEK293) endogenously expressing PAR-2. The PAR-2 activating protease trypsin (EC50: ˜1 nM) was used as an agonistic stimulus with subsequent Fluo-4 dependent intracellular calcium detection (calcium imaging).
A cell-based calcium assay was applied for the identification of PAR-2 antagonistic effects of polyethylene glycol esters and polyethylene glycol ethers. Functional modulation of PAR-2 by the tested compounds was measured and quantified using the calcium sensitive fluorescent probe Fluo-4 AM on a fluorescence microplate reader. Activation of PAR-2 by an agonist (trypsin) led to an increase in the intracellular calcium concentration and thus an increase in fluorescence intensity.
Human embryonic kidney 293 cells (HEK293) endogenously expressing PAR-2 were cultured in DMEM (high glucose) supplemented with tetracycline-free FCS (10% v/v), L-glutamine (4 mM), blasticidin (15 μg/ml), zeocin (100 μg/ml) and puromycin (2 μg/ml) in a water-saturated atmosphere at 37° C. and 5% CO2.
Cells were seeded onto 96-well clear-bottom black-walled assay plates at a density of 45.000 cells per well in 100 μl of cell culture medium. Intracellular calcium increase in the living cells due to receptor activation was monitored 24 h later using the calcium sensitive fluorescent probe Fluo-4 AM on a fluorescence microplate reader (FlexStation® system, Molecular Devices). […]
Medium was replaced with 150 μl KH buffer supplemented with sulfinpyrazone (250 μM). Subsequently, 50 μl KH buffer supplemented with the screening compounds or control substances were added and the cells were incubated for 10 min. under assay conditions in the microplate reader. Changes in fluorescence were recorded at 37° C. after addition of 50 μl KH buffer supplemented with the PAR-2 agonist trypsin (final concentration of 4 nM under measurement conditions).
Calcium mobilization was quantified as the change of peak fluorescence (ΔF) over the baseline level (F). The data was analysed with the software of the microplate reader. […]

Row | IC50 | EC50 (HEK293 cells, Fluo-4 calcium detection, read-out: EC50 of PAR-2 activating protease (agonistic stimulus)) | Substance
1 | 100 µM | – | PEG-5 Isononanoate
2 | 65 µM | – | PEG-9 Tridecylether
3 | – | ~0.001 µM | trypsin [reference compound]
